Data: patent US9931335B2, “Desethylhydroxychloroquine for the treatment of diseases associated with inflammation” (The Board of Trustees of the Leland Stanford Junior …, priority 2013, dated 2018)

How the values were obtained:
[1] = tested on: experimental autoimmune encephalomyelitis (EAE) in SJL mice; test: EAE mouse model for MS, prevention (treatment from immunization); type: in vivo; details: for EAE clinical score (development and severity): 100 mg/kg/day oral gavage from immunization, 50 mg/kg/day from day 8, vs vehicle or BDCQ, P<0.05
Text: Experimental autoimmune encephalomyelitis (EAE), a mouse model for MS, was induced in SJL mice (n=10 per group) by immunization with proteolipid protein peptide 139-151 (PLP 139-151) in CFA. […] Starting on day 8, mice were scored daily for the severity of EAE.

human OA = details: cited from earlier work
[2] = tested on: established EAE in SJL mice; test: EAE mouse model for MS, treatment of established disease; type: in vivo; details: for EAE clinical score (severity of established EAE): 100 mg/kg/day oral gavage from day 14, 50 mg/kg/day 8 days later; for EAE clinical score (severity of established EAE) / Inflammatory Foci Score in the parenchyma / Inflammatory Foci Score, total score / Inflammatory Foci Score in the meninges: vs vehicle; for Inflammatory Foci Score in the parenchyma / Inflammatory Foci Score, total score / Inflammatory Foci Score in the meninges: brain histology at termination; for Inflammatory Foci Score in the meninges: P<0.05 two-tailed T test
Text: Experimental autoimmune encephalomyelitis (EAE), a mouse model for MS, was induced in SJL mice (n=10 per group) by immunization with proteolipid protein peptide 139-151 (PLP 139-151) in CFA. […] At the termination of the experiment, mice were sacrificed, and the brains harvested, fixed, sections histologically scored by a blinded examiner for the number of inflammatory foci in the meninges and parenchyma using an established “Inflammatory Foci Score” (Chang et al, Recovery from EAE is associated with decreased survival of encephalitogenic T cells in the CNS of B7-1/B7-2-deficient mice. European J. Immunology, 2003, 33(7):2022-32).

retinal toxicity [3] = details: cited from earlier work
retinal toxicity [4] = test: Estimated retinal toxicity of long-term DHCQ therapy in humans; type: in vivo, human
Text: The estimated rate of retinal toxicity for long-term treatment with DHCQ is less than 50% of the currently reported rate for HCQ when used at a similar effective cumulative dose and over a similar time period. More specifically, as compared to the rates of retinal toxicity described by Marmor et al. for treatment with HCQ (Ophthalmology. 2011 February; 118(2):415-22), given a similar level of therapeutic activity and time period of dosing for both HCQ and DHCQ, DHCQ is estimated to provide less than 50% of retinal toxicity as compared to that with HCQ dosing. Thus, in patient populations analogous to that described by the […] and Marmor et al (Ophthalmology. 2011 February; 118(2):415-22) where the retinal toxicity rate approach 1% after 5 years, DHCQ therapy is estimated to reduce the retinal toxicity to less that 0.5% of treated individuals. Further, given conventional assumptions that retinal screening is justified as rates of toxicity approach 1%, the reduced cumulative rates of retinal toxicity associated with DHCQ therapy will substantially reduce the need for retinal toxicity screening to a single screening at 5 and 10 years, or entirely negate the need for screening.

| Structure (SMILES) | EAE clinical score (development and severity) [1] | therapeutic benefit in erosive OA (human OA; case series) | disease-modifying or pain-reducing activity in non-erosive OA (human OA; in vivo) | EAE clinical score (severity of established EAE) [2] | Inflammatory Foci Score in the parenchyma [2] | Inflammatory Foci Score, total score [2] | Inflammatory Foci Score in the meninges [2] | prevalence of retinal toxicity (retinal toxicity [3]; conventional doses, 400 mg/day common) | retinal toxicity after 5-7 years of use (retinal toxicity [3]; in vivo) | risk of retinal toxicity after 7 years of usage or 1000 grams of total exposure (retinal toxicity [3]; in vivo) | risk of retinal toxicity after about 7 years of treatment (retinal toxicity [3]; in vivo) | incidence of retinal toxicity after 5 years (retinal toxicity [3]; treated humans, conventional doses) | EAE disease activity compared to HCQ treatment ([1]; at several timepoints, P<0.05 Mann Whitney U test) | estimated retinal toxicity rate in treated individuals after 5 years (retinal toxicity [4]; population where HCQ rate approaches 1% after 5 years) | estimated rate of retinal toxicity, as share of the reported rate for HCQ (retinal toxicity [4]; similar effective cumulative dose and time period) | therapeutic activity in established EAE compared to HCQ ([2]; mouse, in vivo) |
| --- | --- | --- | --- | --- | --- | --- | --- | --- | --- | --- | --- | --- | --- | --- | --- | --- |
| CCN(CCO)CCCC(C)Nc1ccnc2cc(Cl)ccc12 (stereo not drawn) [HCQ, hydroxychloroquine] | prevented development of and reduced the severity of EAE | trends towards therapeutic benefit | has not demonstrated disease-modifying or pain-reducing activity | reducing the severity of EAE | trends towards reductions | trends towards reductions | reduced | 6.8 users per 1,000 | ~1% | 5 times higher | approximately 1% | approximately 1% | – | – | – | – |
| CC(CCCNCCO)Nc1ccnc2cc(Cl)ccc12 (stereo not drawn) [DHCQ, desethylhydroxychloroquine] | prevented development of and reduced the severity of EAE | – | – | reducing the severity of EAE | statistically reduced | statistically reduced | statistically reduced | – | – | – | – | – | statistically superior activity | < 0.5% | less than 50% | more robust therapeutic activity than treatment with HCQ |
